Source: ChEMBL document CHEMBL1201862, “PubChem BioAssay data set” (2004)
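Tested at 5 concentrations; 48 h exposure; 96-well plates; endpoints linearly interpolated, else capped at highest concentration. GI50 marks 50% less growth.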 Active and inactive are the calls of the source. No stated cut-off is given here; in the data, active = GI50 up to about 1.1 µM and inactive = higher.

Columns and labels:
Test in all cases: NCI-60 cell line screen, 48 h
[1] = system: ACHN
[2] = system: CCRF-CEM
[3] = system: COLO 205
[4] = system: DU-145
[5] = system: EKVX
[6] = system: HCT-116
[7] = system: HL-60
[8] = system: MCF7
[9] = system: MDA-MB-231
[10] = system: Malme-3M
[11] = system: NCI-H460
[12] = system: NCI-H522
[13] = system: OVCAR-4
[14] = system: OVCAR-5
[15] = system: SW-620
[16] = system: T47D
[17] = system: TK-10
[18] = system: UACC-62
[19] = system: UO-31

COc1ccc(C(=O)/C=C2\C(=O)Nc3ccc(Br)cc32)cc1
GI50 [1]: 1.89 µM (inactive) | GI50 [2]: 1.4 µM (inactive) | GI50 [3]: 2.3 µM (inactive) | GI50 [4]: 7.48 µM (inactive) | GI50 [5]: 13.6 µM (inactive) | GI50 [6]: 4.05 µM (inactive) | GI50 [7]: 1.99 µM (inactive) | GI50 [8]: 6.44 µM (inactive) | GI50 [9]: 5.57 µM (inactive) | GI50 [10]: 8.22 µM (inactive) | GI50 [11]: 10 µM (inactive) | GI50 [12]: 4.03 µM (inactive) | GI50 [13]: 16.5 µM (inactive) | GI50 [14]: 19.3 µM (inactive) | GI50 [15]: 2.32 µM (inactive) | GI50 [16]: 11.5 µM (inactive) | GI50 [17]: 1.68 µM (inactive) | GI50 [18]: 13.9 µM (inactive) | GI50 [19]: 2.24 µM (inactive)

Cc1ccc(S(=O)(=O)N/N=C2\CC3C4CCC3C2C4)cc1 (stereo not given)
GI50 [1]: > 100 µM (inactive) | GI50 [2]: > 100 µM (inactive) | GI50 [3]: > 100 µM (inactive) | GI50 [4]: > 100 µM (inactive) | GI50 [5]: > 100 µM (inactive) | GI50 [6]: > 100 µM (inactive) | GI50 [7]: > 100 µM (inactive) | GI50 [8]: > 100 µM (inactive) | GI50 [9]: > 100 µM (inactive) | GI50 [10]: > 100 µM (inactive) | GI50 [11]: > 100 µM (inactive) | GI50 [12]: > 100 µM (inactive) | GI50 [13]: > 100 µM (inactive) | GI50 [14]: > 100 µM (inactive) | GI50 [15]: > 100 µM (inactive) | GI50 [16]: > 100 µM (inactive) | GI50 [17]: > 100 µM (inactive) | GI50 [18]: > 100 µM (inactive) | GI50 [19]: > 100 µM (inactive)

CC1=C(C)C(=O)C(C2=CC(=O)c3ccccc3C2=O)=C(C2=CC(=O)c3ccccc3C2=O)C1=O
GI50 [1]: 3.27 µM (inactive) | GI50 [3]: 1.99 µM (inactive) | GI50 [4]: 3.21 µM (inactive) | GI50 [5]: 19.3 µM (inactive) | GI50 [6]: 3.6 µM (inactive) | GI50 [7]: 0.234 µM (active) | GI50 [8]: 1.88 µM (inactive) | GI50 [9]: 4.52 µM (inactive) | GI50 [10]: 0.514 µM (active) | GI50 [11]: 10.1 µM (inactive) | GI50 [12]: 2.85 µM (inactive) | GI50 [13]: 5.04 µM (inactive) | GI50 [14]: 24.3 µM (inactive) | GI50 [15]: 2.79 µM (inactive) | GI50 [16]: 6.95 µM (inactive) | GI50 [17]: 3.38 µM (inactive) | GI50 [18]: 7.19 µM (inactive) | GI50 [19]: 2.84 µM (inactive)

N#CCCSC(=S)C1CCCC1=N (stereo not given)
GI50 [1]: > 100 µM (inactive) | GI50 [3]: > 100 µM (inactive) | GI50 [4]: > 100 µM (inactive) | GI50 [5]: > 100 µM (inactive) | GI50 [6]: > 100 µM (inactive) | GI50 [7]: > 100 µM (inactive) | GI50 [8]: > 100 µM (inactive) | GI50 [9]: > 100 µM (inactive) | GI50 [10]: > 100 µM (inactive) | GI50 [11]: > 100 µM (inactive) | GI50 [12]: > 100 µM (inactive) | GI50 [13]: > 100 µM (inactive) | GI50 [14]: > 100 µM (inactive) | GI50 [15]: > 100 µM (inactive) | GI50 [16]: 36 µM (inactive) | GI50 [17]: > 100 µM (inactive) | GI50 [18]: > 100 µM (inactive) | GI50 [19]: > 100 µM (inactive)

O=C(NNC(=S)NC1CCCCC1)C12CC3CC(CC(C3)C1)C2
GI50 [1]: > 100 µM (inactive) | GI50 [2]: > 100 µM (inactive) | GI50 [3]: > 100 µM (inactive) | GI50 [4]: > 100 µM (inactive) | GI50 [6]: > 100 µM (inactive) | GI50 [7]: > 100 µM (inactive) | GI50 [8]: > 100 µM (inactive) | GI50 [9]: > 100 µM (inactive) | GI50 [10]: > 100 µM (inactive) | GI50 [11]: > 100 µM (inactive) | GI50 [12]: > 100 µM (inactive) | GI50 [13]: > 100 µM (inactive) | GI50 [14]: > 100 µM (inactive) | GI50 [15]: > 100 µM (inactive) | GI50 [16]: > 100 µM (inactive) | GI50 [17]: > 100 µM (inactive) | GI50 [18]: > 100 µM (inactive) | GI50 [19]: > 100 µM (inactive)

C/C(=C/CC[C@]1(CO)CC[C@]2(C)[C@H](CC[C@@H]3[C@@]4(C)CC[C@H](OC5OC(CO)C(O)C(O)C5OC5OC(CO)C(O)C(O)C5O)C(C)(C)[C@@H]4CC[C@]32C)[C@H]1O)CO (stereo not given in full)
GI50 [1]: > 100 µM (inactive) | GI50 [2]: > 100 µM (inactive) | GI50 [3]: > 100 µM (inactive) | GI50 [4]: > 100 µM (inactive) | GI50 [5]: > 100 µM (inactive) | GI50 [6]: > 100 µM (inactive) | GI50 [7]: > 100 µM (inactive) | GI50 [8]: > 100 µM (inactive) | GI50 [9]: > 100 µM (inactive) | GI50 [10]: > 100 µM (inactive) | GI50 [11]: > 100 µM (inactive) | GI50 [12]: > 100 µM (inactive) | GI50 [13]: > 100 µM (inactive) | GI50 [14]: > 100 µM (inactive) | GI50 [15]: > 100 µM (inactive) | GI50 [16]: > 100 µM (inactive) | GI50 [17]: > 100 µM (inactive) | GI50 [18]: > 100 µM (inactive) | GI50 [19]: > 100 µM (inactive)

CN(CCCn1ccnc1[N+](=O)[O-])CCCn1ccnc1[N+](=O)[O-]
GI50 [1]: > 100 µM (inactive) | GI50 [2]: 8.41 µM (inactive) | GI50 [3]: > 100 µM (inactive) | GI50 [4]: > 100 µM (inactive) | GI50 [5]: > 100 µM (inactive) | GI50 [6]: > 100 µM (inactive) | GI50 [7]: > 100 µM (inactive) | GI50 [8]: > 100 µM (inactive) | GI50 [9]: > 100 µM (inactive) | GI50 [10]: > 100 µM (inactive) | GI50 [11]: > 100 µM (inactive) | GI50 [12]: > 100 µM (inactive) | GI50 [13]: > 100 µM (inactive) | GI50 [14]: > 100 µM (inactive) | GI50 [15]: > 100 µM (inactive) | GI50 [16]: > 100 µM (inactive) | GI50 [17]: > 100 µM (inactive) | GI50 [18]: > 100 µM (inactive) | GI50 [19]: > 100 µM (inactive)
